# Patent US7053194B2, “Compositions and methods for p53-mediated repression of gene expression” (Fox Chase Cancer Center, priority 1999, dated 2006)
# Tests used:
# A2780 cells = test: Northern analysis of stathmin mRNA after adriamycin treatment; type: cell-based, human; details: A2780, adriamycin, 12 hours, data not shown
# Description: (§1) Sub-confluent cultures of MCF 7 and A2780 cells were treated with 100 nM trichostatin A (TSA, Sigma)for 2 hours, followed by incubation with 0.5 ug/ml adriamycin (doxorubicin, Sigma) for the indicated timepoints. Va15 cells grown at 39 degrees were treated with 100 nM TSA for two hours, followed by temperature shift to 32 degrees for 12 hours. p53 induction was monitored by western analysis of 100 ug protein as described (Murphy et al., Genes & Devel. 10:2971–2980, 1996), using 0.1ug/ml DO-1 (Ab-6, Calbiochem) or 421 (Ab-1, Calbiochem). MDM2 induction was monitored using the monoclonal antibody 2A10, kindly provided by Arnold Levine (Rockefeller University). For UV treatments, cells were irradiated with 4 J/m2 of UV-C with a Spectroline X series ultraviolet lamp, and output was monitored with a traceable UV light meter (Fisher Scientific). For ALLN treatment, MCF-7 cells were treated with 50 uM ALLN (calpain I inhibitor, Sigma) made in DMSO (dimethyl sulfoxide, Sigma) or with DMSO alone for 2 hours prior to harvesting.
# (§2) Total RNA was isolated from cells using CsC1 purification (Murphy et al., Genes & Devel. 10:2971–2980, 1996) or using Trizol, as per the manufacturer (Gibco/BRL). Northern analyses were performed as described (Murphy et al., Genes & Devel. 10:2971–2980, 1996). Probes for Northerns were radio labeled using random primers (Prime-It-II, Stratagene) and α^32P dCTP (NEN). Autoradiographs were quantitated using NIH image software. The average values from three independent experiments were plotted onto bar graphs following normalization to GAPDH.
# (§3) To extend these observations, the human tumor derived cell lines MCF7 (breast carcinoma)and A2780 (ovarian carcinoma) were analyzed following treatment with adriamycin to activate the endogenous, wild type p53 protein. Because of difficulties detecting human Map4 message, we analyzed the mRNA levels of stathmin (also called oncoprotein 18). We recently identified stathmin as a p53-repressed gene. A time course of treatment of MCF-7 cells with the DNA-damaging agent adriamycin (doxorubicin, DOX) results in approximately 30% reduction of stathmin RNA levels after 8 hours and 75% reduction after 24 hours. We chose to focus further on the 12 hour timepoint of adriamycin treatment, where 50% repression of stathmin was evident, in order to limit the toxicity sometimes associated with TSA (Yoshida et al., J Biol Chem 265:17174–17179, 1990). […] The results of three independent experiments indicate that the repression of stathmin expression evident after 12 hours of adriamycin treatment is completely abrogated by incubation with TSA. In contrast, neither the post-translational stabilization of p53 by adriamycin (DOX) nor the induction of the p53 response genes mdm2 and p21/waf1 were affected by TSA. […] We have performed identical experiments in A2780 cells (ovarian carcinoma, wt p53).
# MCF-7 cells [1] = test: as above; type: cell-based, human; details: MCF-7, adriamycin 0.5 ug/ml
# Description: as §1, §2, §3
# MCF-7 cells [2] = test: Immunoprecipitation-western analysis of p53 and p53-mSin3a complexes; type: cell-based, human
# Description: as §1
# Sub-confluent cultures of cells were harvested and lysed in NP-40 buffer supplemented with protease inhibitors (1 mM PMSF, 10 ug/ml pepstatin A, 10 ug/ml aprotinin, and 5ug/ml leupeptin). Protein concentrations were determined by the method of Bradford (BioRad). Equal ug amounts of protein (between 2.0 and 3.0 mg) were immunoprecipitated with 1 ug of each antibody, except for Va15 immunoprecipitations, which used 1000 ug protein, as described (Murphy et al., Genes & Devel. 10:2971–2980, 1996). For p300, antibody N15 (Santa Cruz Biotechnology) and AB-1 (Calbiochem) yielded similar results. Each IP was washed twice in NP-40 buffer (Wu, et al., Genes & Devel. 7:1126–1132, 1993), followed by 2 washes in RIPA buffer (50 mM Tris pH 7.4/150 mM NaCl/1% Triton X 100/0.1% SDSI 1% Na deoxycholate). Immunoprecipitations were run on 7.5–10% SDS-PAGE gels and transferred overnight onto Immuno-Blot PVDF membrane (BioRad). […]
# These complexes persisted under stringent washing conditions (RIPA buffer washes, see Materials and Methods), and were not present using control antisera (rabbit IgG, lane 1). […] We next analyzed the p53-mSin3a interaction following post-translational stabilization of p53 mediated by DNA damaging agents. […]
# We next analyzed the time-course of the p53-mSin3a interaction following exposure of cells to the DNA damaging agent adriamycin (doxorubicin). Both p53-mSin3a and p53 p300 complexes were monitored by IP-western analysis in a time course following adriamycin treatment of MCF-7 cells. As a control, p53 was immunoprecipitated using polyclonal antisera generated against full-length p53 (Santa Cruz Biotechnology). p53 levels were also assessed at each time point by western analyses (data not shown). […]
# [3] = system: H1299 human lung adenocarcinoma; test: Northern analysis of stathmin mRNA in p53-null cells; type: cell-based; details: H1299, null for p53
structure (smiles),measurement,setting,value
"COc1cccc2c1C(=O)c1c(O)c3c(c(O)c1C2=O)C[C@@](O)(C(=O)CO)C[C@@H]3O[C@H]1C[C@H](N)[C@H](O)[C@H](C)O1 [adriamycin, doxorubicin]",repression of stathmin expression,A2780 cells,approximately 50%
same,reduction of stathmin RNA levels,MCF-7 cells [1]; 8 hours,approximately 30%
same,repression of stathmin,MCF-7 cells [1]; 12 hours,50%
same,reduction of stathmin RNA levels,MCF-7 cells [1]; 24 hours,~75%
same,total p53 protein,"MCF-7 cells [2]; MCF-7, adriamycin, four and eight hours of treatment",significant increase in total p53 protein
same,"amount of p53 in mSin3a complexes, increase",MCF-7 cells [2]; MCF-7 treated with doxorubicin,approximately five-fold greater
same,effect on stathmin levels,[3],neither TSA nor adriamycin had any effect on stathmin levels
